From patent US12655116B2, “Substituted isophthalic acid diamides” (Bayer Aktiengesellschaft, priority 2020, dated 2026)

Tests used:
MATIN [1] = experiment: Pre-emergence herbicidal action against MATIN; assay type: in vivo, Matricaria inodora
How it was run: (§1)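 Pre-emergence soil-surface spray of formulated compound (WP or EC; 600 to 800 l/ha; 0.2% wetting agent) over seeds sown in sandy loam. After 3 weeks under greenhouse conditions, damage is estimated visually in percent against untreated plants.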

PHBPU [2] = experiment: Pre-emergence herbicidal action against PHBPU; assay type: in vivo, Pharbitis purpurea
Excerpt: Seeds of monocotyledonous and dicotyledonous weed plants and crop plants are laid out in sandy loam soil in wood-fiber pots and covered with soil. The compounds of the invention, formulated in the form of wettable powders (WP) or as emulsion concentrates (EC), are then applied to the surface of the covering soil in the form of an aqueous suspension or emulsion at a water application rate equivalent to 600 to 800 l/ha, with addition of 0.2% wetting agent. After the treatment, the pots are placed in a greenhouse and kept under good growth conditions for the trial plants. The damage to the test plants is scored visually after a test period of 3 weeks by comparison with untreated controls (herbicidal activity in percent (%): 100% activity=the plants have died, 0% activity=like control plants). […] The tables below illustrate, in an illustrative manner, the post-emergence herbicidal action of the compounds of the invention, the herbicidal activity being stated in percent.

ABUTH [3] = experiment: Pre-emergence herbicidal action against ABUTH; assay type: in vivo, Abutilon theophrasti; settings: for Pre-emergence action against ABUTH (herbicidal activity): 80 g/ha, scored visually after 3 weeks vs untreated controls (100% = plants have died, 0% = like control plants); for Pre-emergence action against ABUTH (herbicidal activity in percent): dosage 20 g/ha, scored visually after 3 weeks vs untreated controls, 100% = plants have died, 0% = like control plants
How it was run: as §1

SETVI [4] = experiment: Post-emergence herbicidal action against SETVI; assay type: in vivo, Setaria viridis
How it was run: (§2)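 Spray, one-leaf stage: WP or EC compound in water, 600–800 l/ha, 0.2% wetting agent. Plants held about 3 weeks in the greenhouse, then visually rated in percent of kill compared with untreated controls.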

ABUTH [5] = experiment: Post-emergence herbicidal action against ABUTH; assay type: in vivo, Abutilon theophrasti; settings: visual assessment about 3 weeks after treatment vs untreated controls
How it was run: as §2

AMARE [6] = experiment: Pre-emergence herbicidal action against AMARE; assay type: in vivo, Amaranthus retroflexus
How it was run: as §1

AMARE [7] = experiment: Post-emergence herbicidal action against AMARE; assay type: in vivo, Amaranthus retroflexus; settings: 20 g/ha, visual assessment about 3 weeks after treatment, 100% = plants have died, 0% = like control plants
How it was run: as §2

ALOMY [8] = experiment: Pre-emergence herbicidal action against ALOMY; assay type: in vivo, Alopecurus myosuroides; settings: for Pre-emergence action against ALOMY (herbicidal activity): 80 g/ha, scored visually after 3 weeks vs untreated controls (100% = plants have died, 0% = like control plants)
How it was run: as §1

ECHCG [9] = experiment: Post-emergence herbicidal action against ECHCG; assay type: in vivo, Echinochloa crus-galli
How it was run: as §2

ECHCG [10] = experiment: Pre-emergence herbicidal action against ECHCG; assay type: in vivo, Echinochloa crus-galli
How it was run: as §1

SETVI [11] = experiment: Pre-emergence herbicidal action against SETVI; assay type: in vivo, Setaria viridis
How it was run: as §1

ALOMY [12] = experiment: Post-emergence herbicidal action against ALOMY; assay type: in vivo, Alopecurus myosuroides; settings: visual assessment about 3 weeks after treatment vs untreated controls
How it was run: as §2

MATIN [13] = experiment: Post-emergence herbicidal action against MATIN; assay type: in vivo, Matricaria inodora
How it was run: as §2

VIOTR [14] = experiment: Pre-emergence herbicidal action against VIOTR; assay type: in vivo, Viola tricolor
How it was run: as §1

VIOTR [15] = experiment: Post-emergence herbicidal action against VIOTR; assay type: in vivo, Viola tricolor
How it was run: as §2

DIGSA [16] = experiment: Pre-emergence herbicidal action against DIGSA; assay type: in vivo, Digitaria sanguinalis
How it was run: as §1

AVEFA = experiment: Pre-emergence herbicidal action against AVEFA; assay type: in vivo, Avena fatua; settings: 80 g/ha, pre-emergence
How it was run: as §1

DIGSA [17] = experiment: Post-emergence herbicidal action against DIGSA; assay type: in vivo, Digitaria sanguinalis; settings: for Post-emergence action against DIGSA in %: 5 g/ha; for Post-emergence action against DIGSA: 20 g/ha
How it was run: as §2

VERPE = experiment: Pre-emergence herbicidal action against VERPE; assay type: in vivo, Veronica persica
How it was run: as §1

PHBPU [18] = experiment: Post-emergence herbicidal action against PHBPU; assay type: in vivo, Pharbitis purpurea; settings: dosage 20 g/ha
How it was run: as §2

[19] = 20 g/ha, scored visually after 3 weeks vs untreated controls, 100% = plants have died, 0% = like control plants
[20] = 80 g/ha, scored visually after 3 weeks vs untreated controls (100% = plants have died, 0% = like control plants)

Structure (SMILES) | Pre-emergence action against MATIN in % (MATIN [1]; dosage 80 g/ha) [%] | Pre-emergence action against PHBPU in % (PHBPU [2]; dosage 80 g/ha) [%] | Pre-emergence action against ABUTH (herbicidal activity) (ABUTH [3]) [%] | Pre-emergence action against ABUTH (herbicidal activity in percent) (ABUTH [3]) [%] | Post-emergence action against SETVI in % (SETVI [4]; dosage 20 g/ha) [%] | Post-emergence action against ABUTH in % (ABUTH [5]; dosage 5 g/ha) [%] | Post-emergence action against ABUTH in % (ABUTH [5]; dosage 20 g/ha) [%] | Pre-emergence action against AMARE in % (AMARE [6]; [19]) [%] | Pre-emergence action against AMARE in % (AMARE [6]; [20]) [%] | Post-emergence action at 20 g/ha against AMARE in % (AMARE [7]) [%] | Pre-emergence action against ALOMY (herbicidal activity) (ALOMY [8]) [%] | Post-emergence action against ECHCG in % (ECHCG [9]; dosage 20 g/ha) [%] | Pre-emergence action against ECHCG in % (ECHCG [10]; 80 g/ha) [%] | Pre-emergence action against SETVI in % (SETVI [11]; dosage 80 g/ha) [%] | Post-emergence action against ALOMY in % (ALOMY [12]; dosage 20 g/ha) [%] | Post-emergence action against MATIN in % (MATIN [13]; dosage 20 g/ha) [%] | Pre-emergence action against MATIN in % (MATIN [1]; dosage 20 g/ha) [%] | Pre-emergence action against VIOTR in % (VIOTR [14]; dosage 20 g/ha) [%] | Pre-emergence action against VIOTR in % (VIOTR [14]; dosage 80 g/ha) [%] | Pre-emergence action against AVEFA in % (AVEFA) [%] | also measured
COCCNC(=O)c1c(Br)ccc(C(=O)Nc2nnnn2C)c1Cl [Example 1-186] | 90 | 80 | 100 | 100 | 80 | 90 | 90 | 80 | 100 | 100 | 90 | 90 | 80 | 80 | 90 |  |  |  |  |  | Post-emergence action against ALOMY in % (ALOMY [12]; dosage 5 g/ha): 80%
Cn1nnnc1NC(=O)c1ccc(C(F)(F)F)c(C(=O)NCC2CC2)c1Br [Example 1-210] | 100 | 80 | 100 | 100 | 90 | 80 | 90 | 100 | 100 |  | 80 | 80 | 100 | 100 | 100 | 90 | 100 | 100 | 100 | 90 | Post-emergence action against MATIN in % (MATIN [13]; dosage 5 g/ha): 80%; Post-emergence action against SETVI in % (SETVI [4]; dosage 5 g/ha): 80%; Post-emergence action against VIOTR in % (VIOTR [15]; 20 g/ha): 90%; Pre-emergence action against DIGSA in % (DIGSA [16]; dosage 20 g/ha): 100%; Pre-emergence action against DIGSA in % (DIGSA [16]; dosage 80 g/ha): 100%; Post-emergence action against DIGSA in % (DIGSA [17]): 80%; Post-emergence action against DIGSA (DIGSA [17]): 90%; Pre-emergence action against VERPE in % (VERPE; dosage 80 g/ha): 80%; Pre-emergence action against ECHCG in % (ECHCG [10]; 20 g/ha): 80%; Post-emergence action against PHBPU in % (PHBPU [18]): 100%; Post-emergence action against ALOMY in % (ALOMY [12]; dosage 5 g/ha): 80%
CCn1nnnc1NC(=O)c1ccc(Br)c(C(=O)NCC(F)(F)F)c1Cl [Example 2-181] | 100 | 80 | 100 | 100 | 90 |  |  | 100 | 100 |  | 80 | 90 | 100 | 100 | 90 | 90 | 90 |  | 80 | 90 | Post-emergence action against MATIN in % (MATIN [13]; dosage 5 g/ha): 80%; Pre-emergence action against DIGSA in % (DIGSA [16]; dosage 80 g/ha): 100%; Pre-emergence action against VERPE in % (VERPE; dosage 80 g/ha): 100%; Post-emergence action against PHBPU in % (PHBPU [18]): 90%
CCn1nnnc1NC(=O)c1ccc(Br)c(C(=O)NC(C)C)c1Cl [Example 2-185] | 100 | 100 | 100 | 100 | 80 | 90 | 100 | 100 | 100 | 100 | 90 | 100 | 90 | 100 | 90 | 90 | 100 | 80 | 100 | 100 | Post-emergence action against MATIN in % (MATIN [13]; dosage 5 g/ha): 80%; Post-emergence action against VIOTR in % (VIOTR [15]; 5 g/ha): 100%; Post-emergence action against VIOTR in % (VIOTR [15]; 20 g/ha): 100%
CCn1nnnc1NC(=O)c1ccc(C(F)(F)F)c(C(=O)NCC2CC2)c1Br [Example 2-210] | 100 | 90 | 100 | 100 | 80 | 80 | 80 | 100 | 100 | 100 | 100 | 90 | 100 | 100 | 90 | 90 | 100 | 100 | 100 | 90 | Pre-emergence action against PHBPU in % (PHBPU [2]; dosage 20 g/ha): 80%; Post-emergence action against VIOTR in % (VIOTR [15]; 20 g/ha): 90%; Pre-emergence action against DIGSA in % (DIGSA [16]; dosage 20 g/ha): 100%; Pre-emergence action against DIGSA in % (DIGSA [16]; dosage 80 g/ha): 100%; Post-emergence action against DIGSA in % (DIGSA [17]): 80%; Post-emergence action against DIGSA (DIGSA [17]): 90%; Pre-emergence action against ECHCG in % (ECHCG [10]; 20 g/ha): 80%; Post-emergence action against PHBPU in % (PHBPU [18]): 90%
Cc1nnc(NC(=O)c2ccc(C(F)(F)F)c(C(=O)NC3CCC3)c2C)o1 [Example 6-256] | 90 | 80 | 100 |  |  | 80 | 90 | 90 | 100 | 90 | 90 | 90 | 100 | 100 |  |  |  | 90 | 90 | 80 | Pre-emergence action against DIGSA in % (DIGSA [16]; dosage 20 g/ha): 90%; Pre-emergence action against DIGSA in % (DIGSA [16]; dosage 80 g/ha): 100%; Post-emergence action against DIGSA in % (DIGSA [17]): 80%; Post-emergence action against DIGSA (DIGSA [17]): 90%; Pre-emergence action against ALOMY (ALOMY [8]; 20 g/ha, scored visually after 3 weeks, 100% = plants have died, 0% = like control plants): 80%; Post-emergence action against ECHCG in % (ECHCG [9]; dosage 5 g/ha): 90%; Pre-emergence action against VERPE in % (VERPE; dosage 20 g/ha): 80%; Pre-emergence action against VERPE in % (VERPE; dosage 80 g/ha): 80%; Pre-emergence action against ECHCG in % (ECHCG [10]; 20 g/ha): 80%; Pre-emergence action against SETVI in % (SETVI [11]; dosage 20 g/ha): 80%; Post-emergence action against PHBPU in % (PHBPU [18]): 90%
